A word on the MIC: it is the least concentration at which growth counts as inhibited.

The source of these data is ChEMBL document CHEMBL1275411, “Efficacy of SPK-843, a novel polyene antifungal, in comparison with amphotericin B, liposomal amphotericin B, and micafungin against murine pulmonary aspergillosis” (Antimicrob Agents Chemother, 2008).

Series [1] deals with Aspergillus fumigatus. Put plainly: Antimicrobial activity against Aspergillus fumigatus MF-13 by broth microdilution method. The class given is functional.
In series [2] the test system is Aspergillus flavus. The series can be described thus: Antimicrobial activity against Aspergillus flavus conidia infected in iv dosed DBA/2N mouse assessed as increased survival rate measured for 5 days. The class given is functional, organism-based.
Series [3] concerns Aspergillus niger. The series can be described thus: Antimicrobial activity against Aspergillus niger conidia infected in DBA/2N mouse assessed as increased survival rate at =>0.25 mg/kg, iv qd for 5 days. The class given is functional, organism-based.
Series [4] concerns Aspergillus fumigatus. The series can be described thus: Antimicrobial activity against Aspergillus fumigatus conidia infected in DBA/2N mouse assessed as increased survival rate at 0.25 to 1 mg/kg, iv qd for 5 days. It counts as functional, organism-based.
Series [5] deals with Aspergillus niger. The series can be described thus: Antimicrobial activity against Aspergillus niger conidia infected in iv dosed DBA/2N mouse assessed as increased survival rate measured for 5 days. It counts as functional, organism-based.
In series [6] the test system is Aspergillus fumigatus. The series can be described thus: Antimicrobial activity against Aspergillus fumigatus conidia infected in DBA/2N mouse assessed as increased survival rate at =>[…] mg/kg, iv qd for 5 days. The class given is functional, organism-based.
In series [7] the test system is Aspergillus niger. The series can be described thus: Antimicrobial activity against Aspergillus niger conidia infected in DBA/2N mouse assessed as increased survival rate at 2 mg/kg, iv qd for 5 days relative to amphotericin B/L-amphotericin B. The arrangement: dose 2 mg/kg. It counts as functional, organism-based.
Series [8] has as its system Aspergillus flavus. The series can be described thus: Antimicrobial activity against Aspergillus flavus conidia infected in DBA/2N mouse assessed as increased survival rate at 4 mg/kg, iv qd for 5 days relative to amphotericin B/L-amphotericin B. The arrangement: dose 4 mg/kg. It counts as functional, organism-based.
Series [9] has as its system Aspergillus. The series can be described thus: Antimicrobial activity against Aspergillus infected in DBA/2N mouse at 1 mg/kg, iv qd for 5 days. Set-up: dose 1 mg/kg. It counts as functional, organism-based.
The subject of series [10] is Aspergillus flavus. Put plainly: Antimicrobial activity against Aspergillus flavus infected in DBA/2N mouse at >1 mg/kg, iv qd for 5 days relative to amphotericin B. The class given is functional, organism-based.
The subject of series [11] is Aspergillus. The series can be described thus: Antimicrobial activity against Aspergillus infected in DBA/2N mouse assessed as increased survival rate at >1 mg/kg, iv qd for 5 days relative to amphotericin B. It counts as functional, organism-based.
For series [12], the system named is Aspergillus flavus. Put plainly: Antimicrobial activity against Aspergillus flavus TIMM 0057 by broth microdilution method. The class given is functional. Background: In broth dilution the organism is exposed to a series of concentrations in liquid medium.
The test system of series [13] is Mus musculus. Put plainly: Toxicity in DBA/2N mouse infected with Aspergillus at >1.0 mg/kg, iv qd for 5 days relative to amphotericin B. The class given is organism-based. As to conditions: in vivo, 120 h.
Series [14] deals with Aspergillus niger. Put plainly: Antimicrobial activity against Aspergillus niger TIMM 2814 by broth microdilution method. It counts as functional.
Series [15] relates to Aspergillus fumigatus. The series can be described thus: Antimicrobial activity against Aspergillus fumigatus infected in DBA/2N mouse at >1 mg/kg, iv qd for 5 days relative to amphotericin B. It counts as functional, organism-based.
Series [16] concerns Aspergillus flavus. The series can be described thus: Antimicrobial activity against Aspergillus flavus conidia infected in DBA/2N mouse assessed as increased survival rate at =>1 mg/kg, iv qd for 5 days. It counts as functional, organism-based.
Series [17] has as its system Aspergillus niger. The series can be described thus: Antimicrobial activity against Aspergillus niger infected in DBA/2N mouse at >1 mg/kg, iv qd for 5 days relative to amphotericin B. The class given is functional, organism-based.
Series [18] concerns Mus musculus. The series can be described thus: Toxicity in DBA/2N mouse infected with Aspergillus at =<1.0 mg/kg, iv qd after 5 days. The class given is organism-based. The conditions noted are these: in vivo, 120 h.
Series [19] concerns Mus musculus. The series can be described thus: Toxicity in Aspergillosis infected DBA/2N mouse assessed as kidney tubular cell necrosis and cast formation at 1 mg/kg, iv qd after 5 days. As to conditions: in vivo, 120 h. The class given is organism-based. The arrangement: dose 1 mg/kg, route intravenous.
In series [20] the test system is Mus musculus. Put plainly: Toxicity in Aspergillosis infected DBA/2N mouse assessed as histopathological lesions in kidney at 1 mg/kg, iv qd after 5 days. It counts as organism-based. The arrangement: dose 1 mg/kg, route intravenous. As to conditions: in vivo, 120 h.
For series [21], the system named is Mus musculus. The series can be described thus: Toxicity in Aspergillosis infected DBA/2N mouse assessed as histopathological lesions in kidney at 4 mg/kg, iv qd after 5 days. As to conditions: in vivo, 120 h. The arrangement: dose 4 mg/kg, route intravenous. The class given is organism-based.
Series [22] has as its system Aspergillus fumigatus. Put plainly: Antimicrobial activity against Aspergillus fumigatus conidia infected in DBA/2N mouse assessed as increased survival rate at 2 to 4 mg/kg, iv qd for 5 days. It counts as functional, organism-based.

Structures are written as SMILES. In brackets after ≈: the same amount, converted by molar mass. Activity calls are given as the source filed them. The rule behind the calls is not given here. *1 amine or outer side, *2 acyl side, *3 side chain or, on linkers, in order; H or OH if unused. Where a SMILES comes first, the peptide text is derived from it. Bridges are numbered along the chain shown (N, C = ends). [ ]: non-standard residue; d: D form. The star is where a group is joined. hTyr(3S-OH,4S-OH,3'-OSO3H) = N[C@H](C(=O)O)[C@H](O)[C@@H](O)c1ccc(O)c(OS(=O)(=O)O)c1; Orn(4R-OH,5R-OH) = O=C([C@H](C[C@@H](O)[C@@H](O)N[*:3])N[*:1])[*:2]; Pro(3S-OH,4S-Me) = C[C@H]1CN[C@H](C(=O)O)[C@H]1O; X1 = CCCCCOc1ccc(-c2cc(-c3ccc(C(=O)*)cc3)no2)cc1; Gln(3R-OH) = NC(=O)C[C@@H](O)[C@H](N)C(=O)O; Hyp = O=C(O)[C@@H]1C[C@@H](O)CN1

Regarding `CCCCCOc1ccc(-c2cc(-c3ccc(C(=O)N[C@H]4C[C@@H](O)[C@@H](O)NC(=O)[C@@H]5[C@@H](O)[C@@H](C)CN5C(=O)[C@H]([C@H](O)CC(N)=O)NC(=O)[C@H]([C@H](O)[C@@H](O)c5ccc(O)c(OS(=O)(=O)O)c5)NC(=O)[C@@H]5C[C@@H](O)CN5C(=O)[C@H]([C@@H](C)O)NC4=O)cc3)no2)cc1` [MICAFUNGIN] (X1-[Orn(4R-OH,5R-OH)]T[Hyp][hTyr(3S-OH,4S-OH,3'-OSO3H)][Gln(3R-OH)][Pro(3S-OH,4S-Me)]; lactam 1-C), the MIC in the series with Aspergillus fumigatus [1] stood at 0.0156 µg/mL (≈ 0.0123 µM).
As to `CNc1ccc(C(=O)CC(O)CC[C@H](C)C2OC(=O)C[C@H](O)CC(=O)C[C@H](O)C[C@H](O)C[C@H](O)C[C@H](O)C[C@]3(O)C[C@H](O)[C@@H](C(=O)NCCN(C)C)[C@H](C[C@@H](O[C@@H]4O[C@H](C)[C@@H](O)[C@H](NC(=O)CN(C)C)[C@@H]4O)/C=C/C=C/C=C/C=C/C=C/C=C/C=C/C2C)O3)cc1.O=C1O[C@H]([C@@H](O)CO)C(O)=C1O.O=C1O[C@H]([C@@H](O)CO)C(O)=C1O` (some centres not stated), the Activity result was “Dose-dependent effect” with Aspergillus flavus [2], “Dose-dependent effect” in the series on Aspergillus niger [5], “Non-toxic” in the series with Mus musculus [13] and “Non-toxic” with Mus musculus [18]. The result in the series on Aspergillus niger [3], with Aspergillus fumigatus [4], with Aspergillus fumigatus [6], with Aspergillus niger [7], in the series on Aspergillus flavus [8] and with Aspergillus flavus [10] was Active. For the same compound, the result with Aspergillus [11], in the series on Aspergillus fumigatus [15], in the series with Aspergillus flavus [16] and in the series with Aspergillus niger [17] was Active. Also, the MIC against Aspergillus fumigatus [1] was 0.5 µg/mL; against Aspergillus flavus [12], 0.25 µg/mL; in the series with Aspergillus niger [14] it was 0.0625 µg/mL. Further, in the series on Aspergillus [9], the outcome was inactive.
For `C[C@@H]1[C@H](O)[C@@H](C)/C=C/C=C/C=C/C=C/C=C/C=C/C=C/[C@H](O[C@@H]2O[C@H](C)[C@@H](O)[C@H](N)[C@@H]2O)C[C@@H]2O[C@](O)(C[C@@H](O)C[C@@H](O)[C@H](O)CC[C@@H](O)C[C@@H](O)CC(=O)O[C@H]1C)C[C@H](O)[C@H]2C(=O)O` [AMPHOTERICIN B], the Activity entry in the series with Mus musculus [19] is recorded as “Toxic”; in the series on Mus musculus [20], “Non-toxic”; in the series with Mus musculus [21], “Non-toxic”. Further, the MIC against Aspergillus fumigatus [1] worked out at 0.25 µg/mL (≈ 0.271 µM); in the series on Aspergillus flavus [12], 0.5 µg/mL (≈ 0.541 µM); in the series on Aspergillus niger [14], 0.25 µg/mL (≈ 0.271 µM). For the same compound, the result in the series with Aspergillus fumigatus [22] and in the series with Aspergillus fumigatus [6] was Active.
